Results on four compounds are retold here after ChEMBL document CHEMBL1201862, “PubChem BioAssay data set” (2004).

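Compound exposure: 48 hours, 5 concentrations, 96-well plates. The concentration for 50% growth inhibition is given as GI50.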 Calls of active or inactive are those of the source. Cut-off read from the data, not from the text of the source: active = GI50 up to about 1.1 µM and inactive = higher.

Some test systems named below: CAKI-1; HCC 2998; HCT-116; HL-60; HOP-62; KM-20L2; MOLT-4; NCI-H226; NCI-H460; NCI-H522; NCI/ADR-RES; RPMI-8226; SK-MEL-28; SK-MEL-2; SNB-19; SNB-75; SR; SW-620; T47D; UO-31.
Common to all, as to test: inhibition of tumour cell growth, NCI panel, 48 h

`O=C1C=C(Nc2cccnc2)c2ccccc2C1=O`: the GI50 with CAKI-1 was 4.58 µM (inactive); in the experiment on HCC 2998, 11.2 µM (inactive); in the experiment on HCT-116, 11.6 µM (inactive); in the experiment on HL-60, 3.31 µM (inactive); in the experiment with HOP-62, 4.23 µM (inactive); with KM-20L2, > 43.2 µM (inactive). In addition, the GI50 in the experiment on MOLT-4 was 17.6 µM (inactive); in the experiment with NCI-H226, 25.6 µM (inactive); in the experiment with NCI-H460, 3.41 µM (inactive); with NCI-H522 it was 4.7 µM (inactive); in the experiment with NCI/ADR-RES, 4.25 µM (inactive); in the experiment on RPMI-8226, 9.04 µM (inactive). Besides, the GI50 in the experiment on SK-MEL-28 was 5.58 µM (inactive); with SK-MEL-2, 7.23 µM (inactive); in the experiment with SNB-19, 7.1 µM (inactive); in the experiment with SNB-75, 1.51 µM (inactive); with SR it was 6.55 µM (inactive); in the experiment with SW-620, 4.13 µM (inactive). For the same compound, the GI50 in the experiment on T47D was 21.4 µM (inactive); with UO-31, 12 µM (inactive).
In the case of `CN(C)c1n/c(=N/c2ccc3ccccc3c2)ss1`, the GI50 in the experiment on CAKI-1 is 5.87 µM (inactive); with HCC 2998, 33.7 µM (inactive); in the experiment on HCT-116, 13.8 µM (inactive); with HL-60, 16.1 µM (inactive); with HOP-62, 41.8 µM (inactive); with KM-20L2, 29.6 µM (inactive). Also, the GI50 in the experiment on MOLT-4 was 4.45 µM (inactive); with NCI-H226 it was 13.4 µM (inactive); in the experiment with NCI-H460 it was 5.75 µM (inactive); in the experiment on NCI-H522, 7.41 µM (inactive); in the experiment on RPMI-8226 it was 6.9 µM (inactive); in the experiment on SK-MEL-28, 34.8 µM (inactive). For the same compound, the GI50 in the experiment with SK-MEL-2 is 21.3 µM (inactive); in the experiment on SNB-19, 32 µM (inactive); in the experiment on SNB-75, 20.8 µM (inactive); in the experiment with SR, 11.6 µM (inactive); in the experiment on SW-620, 45.3 µM (inactive); in the experiment with UO-31, 23.4 µM (inactive).
Regarding `COCC(C#N)NC1CC(OC2CC(O)(C(=O)CO)Cc3c(O)c4c(c(O)c32)C(=O)c2c(OC)cccc2C4=O)OC(C)C1O` (stereo not given), the GI50 was 0.0388 µM (active) in the experiment on CAKI-1; 0.145 µM (active) in the experiment on HCC 2998; 0.0385 µM (active) in the experiment with HCT-116; 0.0193 µM (active) with HL-60; 0.0287 µM (active) in the experiment with HOP-62; 0.191 µM (active) in the experiment with KM-20L2. In addition, the GI50 is < 0.0137 µM (active) in the experiment with MOLT-4; 0.0278 µM (active) in the experiment with NCI-H226; < 0.01 µM (active) in the experiment with NCI-H460; 0.0321 µM (active) with NCI-H522; 1.82 µM (inactive) with NCI/ADR-RES; 0.0282 µM (active) with RPMI-8226. Also, the GI50 in the experiment on SK-MEL-28 was 0.156 µM (active); in the experiment on SK-MEL-2, 0.136 µM (active); in the experiment with SNB-19 it was 0.0427 µM (active); in the experiment on SNB-75, 0.0564 µM (active); with SR, < 0.0111 µM (active); with SW-620 it was 0.033 µM (active). Also, the GI50 in the experiment with UO-31 is 0.442 µM (active).
For the compound `C=C[C@]1(C)CCC2=C(CCC3C2(C)CCC[C@]3(C)CO)C1` (stereo not given in full), the GI50 was 76 µM (inactive) in the experiment with CAKI-1; 43.7 µM (inactive) in the experiment on HCC 2998; 35.6 µM (inactive) in the experiment on HCT-116; 27.9 µM (inactive) in the experiment on HL-60; > 100 µM (inactive) with HOP-62; 20.2 µM (inactive) with KM-20L2. The GI50 was 24.3 µM (inactive) with MOLT-4; 41.2 µM (inactive) with NCI-H226; 35.1 µM (inactive) in the experiment on NCI-H460; 23 µM (inactive) with NCI-H522; 27.2 µM (inactive) with RPMI-8226; > 100 µM (inactive) with SK-MEL-28. For the same compound, the GI50 with SK-MEL-2 was 45.9 µM (inactive); with SNB-19, > 100 µM (inactive); with SNB-75, 61.5 µM (inactive); in the experiment with SR it was 26.8 µM (inactive); with SW-620 it was 63.8 µM (inactive); with UO-31, 74 µM (inactive).
